Source: patent US10266609B2, “Immunomodulating beta-1,6-D-glucans” (Innate Biotherapeutics, LLC, priority 2014, dated 2019)

System: Anti-β-1,6-Glucan IgG antibodies (affinity purified from IVIG, Baxter)
Test: ELISA: binding of oligosaccharides to anti-β-1,6-glucan antibodies; note: key: a plus (+) sign indicates that the glucan was active in the assay; a minus (−) sign indicates that the glucan was not active; the '+/−' symbol indicates inconclusive results
Settings: plate coated with oligosaccharide in PBS; 40 ug/mL anti-Beta 1,6 Glucan IgG; anti-human IgG-HRP, TMB, absorbance at 620 nm
Experimental: Binding of oligosaccharides to anti-β-1,6-glucan antibodies is performed as described in the following protocol.
• 1. […] Anti-β-1,6-Glucan IgG antibodies (affinity purified from IVIG, Baxter) • 6. […] PBS-Tween buffer (PH 7.2, 0.05% Tween 20, Kpl cat #51-12-01) II. Method: Detection of Anti-Beta Glucan IgG by ELISA • 1. Coat plate with oligosaccharides in PBS overnight at 4° C. • 2. Wash 3 times with 250 uL of PBS-Tween • 3. Empty plate • 4. Block plate with 200 uL of Casein for 1 hour at room temperature • 5. Empty plate • 6. Add 40 ug/mL anti-Beta 1,6 Glucan IgG (4 ug/well) in Casein • 7. Incubate for 45 min at room temperature • 8. Wash 3 times with 250 uL of PBS-Tween • 9. Empty plate • 10. Add detection antibody: anti-human IgG-HRP at 1:5000—in casein. Incubate for 45 min at room temperature in the dark • 11. Wash 5 times with 250 uL of PBS-Tween • 12. Empty plate • 13. Add 100 uL of one step ultra TMB • 14. Measure the absorbance at 620 nm every 1 min for 60 min Tables 1-3 provide ELISA assay data for certain glucan compounds.

Row | Compound | ELISA assay data: glucan active in detection of anti-beta glucan IgG
1 | COC1O[C@H](CO[C@@H]2O[C@H](CO[C@@H]3O[C@H](CO[C@@H]4O[C@H](CO[C@@H]5O[C@H](CO[C@@H]6O[C@H](CO[C@@H]7O[C@H](CO[C@@H]8O[C@H](CO[C@@H]9O[C@H](CO[C@@H]%10O[C@H](CO[C@@H]%11O[C@H](CO)[C@@H](O)[C@H](O)[C@H]%11O)[C@@H](O)[C@H](O)[C@H]%10O)[C@@H](O)[C@H](O)[C@H]9O)[C@@H](O)[C@H](O)[C@H]8O)[C@@H](O)[C@H](O)[C@H]7O)[C@@H](O)[C@H](O)[C@H]6O)[C@@H](O)[C@H](O)[C@H]5O)[C@@H](O)[C@H](O)[C@H]4O)[C@@H](O)[C@H](O)[C@H]3O)[C@@H](O)[C@H](O)[C@H]2O)[C@@H](O)[C@H](O)[C@H]1O (stereo partly drawn) [OCH3, n=11, methyl [O-β-D-glucopyranosyl-1,6]10-D-glucopyranoside] | +
2 | O=CCCCCO[C@@H]1O[C@H](CO[C@@H]2O[C@H](CO[C@@H]3O[C@H](CO[C@@H]4O[C@H](CO)[C@@H](O)[C@H](O)[C@H]4O)[C@@H](O)[C@H](O)[C@H]3O)[C@@H](O)[C@H](O)[C@H]2O)[C@@H](O)[C@H](O)[C@H]1O [β-O(CH2)4C═O, n=4, 1-O-[4-oxybutoxy]-6-O—[O-β-D-glucopyranosyl-(1,6)]3-β-D-glucopyranoside] | +
3 | COC1O[C@H](CO[C@@H]2O[C@H](CO[C@@H]3O[C@H](CO[C@@H]4O[C@H](CO[C@@H]5O[C@H](CO)[C@@H](O)[C@H](O)[C@H]5O)[C@@H](O)[C@H](O)[C@H]4O)[C@@H](O)[C@H](O)[C@H]3O)[C@@H](O)[C@H](O)[C@H]2O)[C@@H](O)[C@H](O)[C@H]1O (stereo partly drawn) [OCH3, n=5, methyl [O-β-D-glucopyranosyl-1,6-]4-D-glucopyranoside] | +
4 | OC[C@H]1O[C@@H](OC[C@H]2O[C@@H](OC[C@H]3O[C@@H](OC[C@H]4O[C@@H](OC[C@H]5O[C@H](OCCCl)[C@H](O)[C@@H](O)[C@@H]5O)[C@H](O)[C@@H](O)[C@@H]4O)[C@H](O)[C@@H](O)[C@@H]3O)[C@H](O)[C@@H](O)[C@@H]2O)[C@H](O)[C@@H](O)[C@@H]1O [α-O(CH2)2Cl, n=5, 2-chloroethyl [O-β-D-glucopyranosyl-1,6]4-D-glucopyranoside] | +
5 | [(2R,3R,4R,5RS)-2,3,4,5-tetrahydroxy-6-[(N-methyl-N-(5-aminopentyl))amino]hexyl [O-β-D-glucopyranosyl-1,6]6-β-D-glucopyranoside [N(Me),N(CH2)5NH2, n=7] | +
6 | OCC1OC(OCC2OC(OCC3OC(OCC4OC(OCC5OC(OCC6OC(OCC7OC(OCC8OC(O)C(O)C(O)C8O)C(O)C(O)C7O)C(O)C(O)C6O)C(O)C(O)C5O)C(O)C(O)C4O)C(O)C(O)C3O)C(O)C(O)C2O)C(O)C(O)C1O (stereo not shown) [OH, n=8] | +
7 | [N-]=[N+]=NCCOC1OC(COC2OC(COC3OC(COC4OC(COC5OC(COC6OC(COC7OC(CO)C(O)C(O)C7O)C(O)C(O)C6O)C(O)C(O)C5O)C(O)C(O)C4O)C(O)C(O)C3O)C(O)C(O)C2O)C(O)C(O)C1O (stereo not drawn) [α-O(CH2)2N3, n=7] | +
8 | [N-]=[N+]=NCCOC1OC(COC2OC(COC3OC(COC4OC(COC5OC(CO)C(O)C(O)C5O)C(O)C(O)C4O)C(O)C(O)C3O)C(O)C(O)C2O)C(O)C(O)C1O (stereo not drawn) [α-O(CH2)2N3, n=5] | +
9 | N#C[C@H](O[C@@H]1O[C@H](CO[C@@H]2O[C@H](CO)[C@@H](O)[C@H](O)[C@H]2O)[C@@H](O)[C@H](O)[C@H]1O)c1ccccc1 [β-OCH(CN)Ph, n=2, amygdalin, reference compound] | −
10 | OC[C@H]1O[C@@H](OC[C@H]2O[C@@H](OC[C@H]3O[C@@H](OC[C@H]4O[C@@H](OC[C@H]5O[C@@H](OC[C@H]6O[C@@H](OC[C@H]7O[C@@H](OC[C@H]8O[C@@H](OC[C@H]9O[C@@H](OC[C@H]%10OC(O)[C@H](O)[C@@H](O)[C@@H]%10O)[C@H](O)[C@@H](O)[C@@H]9O)[C@H](O)[C@@H](O)[C@@H]8O)[C@H](O)[C@@H](O)[C@@H]7O)[C@H](O)[C@@H](O)[C@@H]6O)[C@H](O)[C@@H](O)[C@@H]5O)[C@H](O)[C@@H](O)[C@@H]4O)[C@H](O)[C@@H](O)[C@@H]3O)[C@H](O)[C@@H](O)[C@@H]2O)[C@H](O)[C@@H](O)[C@@H]1O (stereo partly drawn) [OH, n=10, [O-β-D-glucopyranosyl-1,6-]9-D-glucose] | +
11 | CN(Cc1ccc(C(=O)O)cc1)CC(O)[C@@H](O)[C@H](O)[C@H](O)CO[C@@H]1O[C@H](CO[C@@H]2O[C@H](CO[C@@H]3O[C@H](CO[C@@H]4O[C@H](CO[C@@H]5O[C@H](CO)[C@@H](O)[C@H](O)[C@H]5O)[C@@H](O)[C@H](O)[C@H]4O)[C@@H](O)[C@H](O)[C@H]3O)[C@@H](O)[C@H](O)[C@H]2O)[C@@H](O)[C@H](O)[C@H]1O (mixture of isomers) [N(Me),N(CH2)4-BzOH, n=5] | +
12 | COC1O[C@H](CO[C@@H]2O[C@H](CO[C@@H]3O[C@H](CO[C@@H]4O[C@H](CO[C@@H]5O[C@H](CO[C@@H]6O[C@H](CO[C@@H]7O[C@H](CO[C@@H]8O[C@H](CO[C@@H]9O[C@H](CO[C@@H]%10O[C@H](CO)[C@@H](O)[C@H](O)[C@H]%10O)[C@@H](O)[C@H](O)[C@H]9O)[C@@H](O)[C@H](O)[C@H]8O)[C@@H](O)[C@H](O)[C@H]7O)[C@@H](O)[C@H](O)[C@H]6O)[C@@H](O)[C@H](O)[C@H]5O)[C@@H](O)[C@H](O)[C@H]4O)[C@@H](O)[C@H](O)[C@H]3O)[C@@H](O)[C@H](O)[C@H]2O)[C@@H](O)[C@H](O)[C@H]1O (stereo partly drawn) [OCH3, n=10, methyl [O-β-D-glucopyranosyl-1,6]9-D-glucopyranoside] | +
13 | 1-O-[2-(2-oxymethoxy)ethoxy]-6-O—[O-β-D-glucopyranosyl-(1,6)]3-β-D-glucopyranoside [β-O(CH2)2O(CH2)2C═O, n=4] | +
14 | O=C(O)C1CCN(CC(O)[C@@H](O)[C@H](O)[C@H](O)CO[C@@H]2O[C@H](CO[C@@H]3O[C@H](CO[C@@H]4O[C@H](CO)[C@@H](O)[C@H](O)[C@H]4O)[C@@H](O)[C@H](O)[C@H]3O)[C@@H](O)[C@H](O)[C@H]2O)CC1 (mixture of isomers) [4-piperidineCO2H, n=3, N-[6-[(O-β-D-glucopyranosyl-(1,6))2-β-D-glucopyranosyl](2RS,3R,4R,5R)-2,3,4,5-tetrahydroxyhexyl]piperidine-4-carboxylic acid] | +
15 | O=C(O)C1CCN(CC(O)[C@@H](O)[C@H](O)[C@H](O)CO[C@@H]2O[C@H](CO[C@@H]3O[C@H](CO[C@@H]4O[C@H](CO)[C@@H](O)[C@H](O)[C@H]4O)[C@@H](O)[C@H](O)[C@H]3O)[C@@H](O)[C@H](O)[C@H]2O)C1 (mixture of isomers) [3-pyrrolidineCO2H, n=3] | +
16 | [N-]=[N+]=NCCOC1OC(COC2OC(COC3OC(COC4OC(COC5OC(COC6OC(CO)C(O)C(O)C6O)C(O)C(O)C5O)C(O)C(O)C4O)C(O)C(O)C3O)C(O)C(O)C2O)C(O)C(O)C1O (stereo not drawn) [α-O(CH2)2N3, n=6] | +
17 | O=C(O)c1cc(OCc2cn(CCO[C@@H]3O[C@H](CO[C@@H]4O[C@H](CO[C@@H]5O[C@H](CO[C@@H]6O[C@H](CO[C@@H]7O[C@H](CO)[C@@H](O)[C@H](O)[C@H]7O)[C@@H](O)[C@H](O)[C@H]6O)[C@@H](O)[C@H](O)[C@H]5O)[C@@H](O)[C@H](O)[C@H]4O)[C@@H](O)[C@H](O)[C@H]3O)nn2)cc(OCc2cn(CCO[C@@H]3O[C@H](CO[C@@H]4O[C@H](CO[C@@H]5O[C@H](CO[C@@H]6O[C@H](CO[C@@H]7O[C@H](CO)[C@@H](O)[C@H](O)[C@H]7O)[C@@H](O)[C@H](O)[C@H]6O)[C@@H](O)[C@H](O)[C@H]5O)[C@@H](O)[C@H](O)[C@H]4O)[C@@H](O)[C@H](O)[C@H]3O)nn2)c1 [(β-D-glucopyanosy1-1,6)nβ-O(CH2)2-, n=5, 3,5-bis(1[2-[O-β-D-glucopyranosyl-(1→6)]5oxy]ethyl-1H-1,2,3-triazol-4-yl)methoxybenzoic acid] | +
18 | O=C(O)C1CCN(CC(O)[C@@H](O)[C@H](O)[C@H](O)CO[C@@H]2O[C@H](CO[C@@H]3O[C@H](CO[C@@H]4O[C@H](CO[C@@H]5O[C@H](CO)[C@@H](O)[C@H](O)[C@H]5O)[C@@H](O)[C@H](O)[C@H]4O)[C@@H](O)[C@H](O)[C@H]3O)[C@@H](O)[C@H](O)[C@H]2O)CC1 (mixture of isomers) [4-piperidineCO2H, n=4] | +
19 | OC[C@H]1O[C@@H](OC[C@H]2O[C@@H](OC[C@H]3O[C@@H](OC[C@H]4O[C@@H](OC[C@H]5O[C@@H](OC[C@H]6O[C@@H](OC[C@H]7O[C@@H](OC[C@H]8O[C@@H](OC[C@H]9OC(OCCCl)[C@H](O)[C@@H](O)[C@@H]9O)[C@H](O)[C@@H](O)[C@@H]8O)[C@H](O)[C@@H](O)[C@@H]7O)[C@H](O)[C@@H](O)[C@@H]6O)[C@H](O)[C@@H](O)[C@@H]5O)[C@H](O)[C@@H](O)[C@@H]4O)[C@H](O)[C@@H](O)[C@@H]3O)[C@H](O)[C@@H](O)[C@@H]2O)[C@H](O)[C@@H](O)[C@@H]1O (stereo partly drawn) [α-O(CH2)2Cl, n=9, 2-chloroethyl [O-β-D-glucopyranosyl-1,6]8-D-glucopyranoside] | +
